Measured values taken from patent US10869931B2, “Polyethylene glycol-modified angiogenesis inhibitor HM-1 and application thereof” (NANJING ANJI BIOLOGICAL TECHNOLOGY CO.,LTD, priority 2016, dated 2020).
Where no end group is shown, it is not given here.

test system: various tumor cells; experiment: MTT proliferation inhibition, overall statements on various tumor cells; assay type: cell-based, human; settings: compared with the negative control
Protocol: The activity of mPEG-HM-1 to inhibit the growth of various tumor cells was examined by MTT assay. The tumor cells were cultured to a concentration of 90% or more in a 37° C., 5% CO2 incubator and collected by trypsinization. The cells were resuspended in the culture medium and counted under a microscope to adjust the cell concentration to 2×10^4 cells/mL, the cell suspension was inoculated into a 96-well plate at 100 μL/well and incubated overnight at 37° C. in a 5% CO2 incubator. mPEG-HM-1 was diluted with the culture solution to each predetermined concentration. Docetaxel is diluted to the final concentration with the culture medium. After the cells were fully attached, each dilution was added to a 96-well plate (100 μL/well). The mPEG-HM-1 dilution was added as a drug-administered group, and docetaxel was added as a positive control group, and a culture solution without any drug was used as a negative control group. Incubate for 48 h at 37° C. in a 5% CO2 incubator. 5 mg/mL of MTT was added to a 96-well plate at 20 μL per well, and incubation was continued for 4 hours. The medium was aspirated, dissolved in 150 μL of DMSO per well, and gently mixed by shaking for 10 min. The absorbance was measured at a measurement wavelength of 570 nm and a reference wavelength of 630 nm using a microplate reader, and the rate of growth inhibition (proliferation inhibition, PI) was calculated. The formula is as follows: PI (%)=1−administration group/negative group
The test was repeated 3 times independently, and the results obtained by the test were expressed as mean±SD, and the test results are shown in Table 15 to Table 18.

Substance	inhibition of proliferation of various tumor cells (in words)
mPEG2-NHS20k-Arg-Gly-Ala-Asp-Arg-Ala-Gly-Gly-Gly-Gly-Arg-Gly-Asp ({mPEG2‑NHS 20 kDa}-RGADRAGGGGRGD) [mPEG2-NHS20k-HM-1]	had the best effect
mPEG-ALD10k-Arg-Gly-Ala-Asp-Arg-Ala-Gly-Gly-Gly-Gly-Arg-Gly-Asp ({mPEG‑ALD 10 kDa}-RGADRAGGGGRGD) [mPEG-ALD10k-HM-1]	had the best effect
mPEG-SC20k-Arg-Gly-Ala-Asp-Arg-Ala-Gly-Gly-Gly-Gly-Arg-Gly-Asp ({mPEG‑SC 20 kDa}-RGADRAGGGGRGD) [mPEG-SC20k-HM-1]	had the best effect
mPEG-bALD10k-Arg-Gly-Ala-Asp-Arg-Ala-Gly-Gly-Gly-Gly-Arg-Gly-Asp ({mPEG‑bALD 10 kDa}-RGADRAGGGGRGD) [mPEG-bALD10k-HM-1]	had the best effect
